Results from patent US6972175B2, “Inhibition of Egr-1 expression by ppar-gamma agonists and related compositions and methods” (priority 2002, dated 2005).

How the values were obtained:
[1] = Murine survival following lung ischemia/reperfusion injury; type: in vivo, mouse; conditions: 1 hour after circulatory exclusion of nonischemic lung
Protocol: Murine ischemia/reperfusion model. C57BL6/J mice (male, 12–15 weeks old) purchased from Jackson Laboratories (Bar Harbor, Me.) were used in these experiments according to a protocol approved by the Institutional Animal Care and Use Committee at Columbia University, in accordance with guidelines of the American Association for the Accreditation of Laboratory Animal Care.
Troglitazone was administered to mice by oral gavage (0.1 mL/mouse) for 7 days at doses of 0, 5, and 100 mg/kg/day, prepared as a suspension in 0.5% methylcellulose solution. For control experiments, methylcellulose solution alone was used for gavage (these experiments are referred to as “vehicle” controls). The ischemia/reperfusion stress followed on day 8. […] Survival was measured 1 hour after circulatory exclusion of the nonoperated lung (by ligating the right hilum), which was performed after both the ischemic and reperfusion (3 hours) periods had elapsed. […]
Statistics. […] Survival was estimated by the Kaplan-Meier method, with differences in survival determined by log-rank analysis. Values are expressed as mean±standard error of the mean (SEM), with differences considered statistically significant when p<0.05.

[2] = test system: Egr-1 protein; test: Egr-1 protein expression by Western blotting in hypoxic mononuclear phagocytes; type: cell-based, rat; conditions: ligand added 6 hours before 30 minutes hypoxia; Western blot, FIG. 1b
Protocol: (§1) Cell culture and induction of hypoxia. A rat alveolar macrophage cell line (NR8383) was obtained from the ATCC (Manassas, Va.), and cells were grown to 70% confluence in Ham's F-12K medium containing 15% heat-inactivated fetal bovine serum. Cells were made quiescent by serum starvation (0.2%, fetal bovine serum) for 24 hours. The PPAR-γ ligands were obtained from the following sources: troglitazone was provided by Sankyo Pharmaceutical Co. (Tokyo, Japan); and 15-d-PGJ2 was purchased from Cayman Chemical Co. (Ann Arbor, Mich.). The PPAR-α ligand bezafibrate was obtained from Sigma Chemical Co. (St. Louis. Mo.). These PPAR ligands were dissolved in minute quantities of DMSO (final concentration 0.005%). PPAR ligands were added 6 hours prior to induction of hypoxia. Using an environmental chamber described previously (Yan, 1999), cells were subjected to 30 minutes hypoxia (pO2 in the medium ˜12–14 torr. This time was chosen because it has previously been shown that this is the time of maximal Egr-1 expression in hypoxic macrophages. Cells subjected to hypoxia were placed in medium pre-equilibrated with the hypoxic gas mixture just prior to placement in the environmental chamber. Thus, cultures were immersed immediately in the oxygen-deprived environment at the time of medium change, coinciding with time of placement in the chamber.
Western blotting. […]

[3] = test system: Egr-1; test: Hypoxia-driven Egr-1 induction in macrophages (data not shown); type: cell-based
Protocol: as §1

[4] = test system: Egr-1/DNA binding; test: Electrophoretic mobility gel shift assay on nuclear extracts from NR8383 cells; type: cell-based, rat; conditions: nuclear extracts of NR8383 cells 30 minutes after hypoxia; 1 or 20 μM 15-d-PGJ2, 20 μM troglitazone, 20 μM bezafibrate; FIG. 1c
Protocol: as §1
Electrophoretic mobility gel shift assay. […]

[5] = test system: Egr-1 mRNA; test: Egr-1 mRNA levels by Northern blotting in hypoxic mononuclear phagocytes; type: cell-based, rat; conditions: NR8383 cells, ligand added 6 hours before 30 minutes hypoxia; Northern blot, FIG. 1a
Protocol: Cell culture and induction of hypoxia. A rat alveolar macrophage cell line (NR8383) was obtained from the ATCC (Manassas, Va.), and cells were grown to 70% confluence in Ham's F-12K medium containing 15% heat-inactivated fetal bovine serum. Cells were made quiescent by serum starvation (0.2%, fetal bovine serum) for 24 hours. The PPAR-γ ligands were obtained from the following sources: troglitazone was provided by Sankyo Pharmaceutical Co. (Tokyo, Japan); and 15-d-PGJ2 was purchased from Cayman Chemical Co. (Ann Arbor, Mich.). The PPAR-α ligand bezafibrate was obtained from Sigma Chemical Co. (St. Louis. Mo.). These PPAR ligands were dissolved in minute quantities of DMSO (final concentration 0.005%). PPAR ligands were added 6 hours prior to induction of hypoxia. […]

| Structure (SMILES) | survival relative to vehicle-treated mice ([1]; vehicle 10% survival) | survival ([1]; 1 hour ischemia, 3 hours reperfusion, FIG. 4f) | Egr-1 protein levels after hypoxia [2] | hypoxia-driven Egr-1 induction in macrophages [3] | potency of inhibition of hypoxia-induced Egr-1 expression compared with troglitazone ([3]; macrophages, parallel study) | gel shift band associated with Egr-1/DNA binding [4] | Egr-1 mRNA levels after hypoxia [5] |
| --- | --- | --- | --- | --- | --- | --- | --- |
| Cc1c(C)c2c(c(C)c1O)CCC(C)(COc1ccc(CC3SC(=O)NC3=O)cc1)O2 (stereo not shown) [troglitazone] | 4 times | 40% |  |  |  |  |  |
| CCCCCC=CC=C1C(=O)C=C[C@@H]1CC=CCCCC(=O)O [15-d-PGJ2, 15-deoxy-Δ^12,14-prostaglandinJ2] |  |  | significantly inhibited | inhibited hypoxia-induced expression of Egr-1 | equal potency as troglitazone | virtually abrogated | significantly reduced |
